Experimental data: patent US20030134842A1, “METHODS FOR THE TREATMENT OR PREVENTION OF INFLAMMATORY DISEASES CHARACTERIZED BY ABNORMAL CELL PROLIFERATION” (priority 1997, published 2003)
Like-named read-outs stand apart in the source and are kept apart here.

Legend:
[1] = test system: NIH 3T3 mouse fibroblast cells; assay: Mitogenic assay (mitogen-induced cell proliferation); assay type: cell-based; settings: for IC50: mitogen-induced cell proliferation
[2] = biological target: T1, Ca2+-activated potassium channel (Gardos channel) of erythrocytes (Homo sapiens, UniProt O15554); assay: Gardos channel assay; assay type: cell-based; settings: for inhibition at 10 µM: 10 μM compound
T1 construct: endogenous in cells; host or cells: erythrocytes
T1 sequence (O15554 whole entry): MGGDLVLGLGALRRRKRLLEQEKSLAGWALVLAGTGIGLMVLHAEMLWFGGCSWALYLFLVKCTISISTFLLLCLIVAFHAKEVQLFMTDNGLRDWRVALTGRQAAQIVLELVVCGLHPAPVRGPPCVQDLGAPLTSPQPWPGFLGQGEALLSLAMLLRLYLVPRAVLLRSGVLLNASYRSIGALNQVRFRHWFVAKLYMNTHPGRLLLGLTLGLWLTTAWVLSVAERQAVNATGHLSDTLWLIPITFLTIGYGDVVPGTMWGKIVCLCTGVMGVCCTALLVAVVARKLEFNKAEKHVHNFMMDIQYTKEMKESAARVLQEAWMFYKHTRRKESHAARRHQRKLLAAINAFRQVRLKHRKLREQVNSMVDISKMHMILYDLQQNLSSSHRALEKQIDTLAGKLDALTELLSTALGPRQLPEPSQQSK

A549 = assay: SRB antiproliferative assay A549; assay type: cell-based; settings: Homo sapiens
From the text: (§1) The cells were passaged using Trypsin (Gibco).

MMRU = assay: SRB antiproliferative assay MMRU; assay type: cell-based; settings: Homo sapiens
From the text: as §1

HT29 = assay: SRB antiproliferative assay HT29; assay type: cell-based; settings: Homo sapiens
From the text: as §1

HeLa = assay: SRB antiproliferative assay HeLa; assay type: cell-based; settings: Homo sapiens; HeLa (Cervical), 5% FCS/5 day incubation; read-out: Test Compound IC50
From the text: as §1

CaSki = assay: SRB antiproliferative assay CaSki; assay type: cell-based; settings: Homo sapiens, Ca-Ski; CaSki (Cervical), 5% FCS/5 day incubation; read-out: Test Compound IC50
From the text: as §1

MDA-MB-23 = assay: SRB antiproliferative assay MDA-MB-23; assay type: cell-based
From the text: as §1

MCF7 = assay: SRB antiproliferative assay MCF7; assay type: cell-based; settings: Homo sapiens
From the text: as §1

HTB174 = assay: SRB antiproliferative assay HTB174; assay type: cell-based; settings: HTB174 (Lung), 5% FCS/5 day incubation; read-out: Test Compound IC50
From the text: as §1

HEPG2 = assay: SRB antiproliferative assay HEPG2; assay type: cell-based; settings: Homo sapiens
From the text: as §1

DU-145 = assay: SRB antiproliferative assay DU-145; assay type: cell-based; settings: Homo sapiens; DU-145 (Prostate), 5% FCS/5 day incubation; read-out: Test Compound IC50
From the text: as §1

SK-MEL-28 = assay: SRB antiproliferative assay SK-MEL-28; assay type: cell-based; settings: Homo sapiens; SK-MEL-28 (Melanoma), 5% FCS/5 day incubation; read-out: Test Compound IC50
From the text: as §1

HCT-15 = assay: SRB antiproliferative assay HCT-15; assay type: cell-based; settings: Homo sapiens; HCT-15 (Colon), 5% FCS/5 day incubation; read-out: Test Compound IC50
From the text: as §1

ACHN = assay: SRB antiproliferative assay ACHN; assay type: cell-based; settings: Homo sapiens; ACHN (Renal), 5% FCS/5 day incubation; read-out: Test Compound IC50
From the text: as §1

U118MG = assay: SRB antiproliferative assay U118MG; assay type: cell-based; settings: Homo sapiens, U-118-MG
From the text: as §1

SK-OV-3 = assay: SRB antiproliferative assay SK-OV-3; assay type: cell-based; settings: Homo sapiens; SK-OV-3 (Ovary), 5% FCS/5 day incubation; read-out: Test Compound IC50
From the text: as §1

HUVEC = assay: SRB assay normal cells HUVEC; assay type: cell-based; settings: HUVEC (Normal human), 5% FCS/5 day incubation; read-out: Test Compound IC50
From the text: as §1

GM = assay: SRB assay normal cells GM; assay type: cell-based; settings: GM (Normal human), 5% FCS/5 day incubation; read-out: Test Compound IC50
From the text: as §1

3T3 = assay: SRB assay normal cells 3T3; assay type: cell-based; settings: NIH3T3; 3T3 (Normal mouse), 5% FCS/5 day incubation; read-out: Test Compound IC50
From the text: as §1

L929 = assay: SRB assay normal cells L929; assay type: cell-based; settings: L929 (Normal mouse), 5% FCS/5 day incubation; read-out: Test Compound IC50
From the text: as §1

[3] = Mus musculus, NIH3T3, NIH 3T3 mouse fibroblast cells
[4] = MDA-MB-23 (Breast), 5% FCS/5 day incubation, read-out: Test Compound IC50
[5] = MCF7 (Breast), 5% FCS/5 day incubation, read-out: Test Compound IC50
[6] = MCF7, 5% FCS/3 days, read-out: Test Compound IC50 Value in Cell Lines
[7] = A549, A549 (Lung), 5% FCS/5 day incubation, read-out: Test Compound IC50
[8] = A549, A549, 5% FCS/3 days, read-out: Test Compound IC50 Value in Cell Lines
[9] = HEPG2 (Hepatocel), 5% FCS/5 day incubation, read-out: Test Compound IC50
[10] = HEPG2, 5% FCS/3 days, read-out: Test Compound IC50 Value in Cell Lines
[11] = MMRU (Melanoma), 5% FCS/5 day incubation, read-out: Test Compound IC50
[12] = MMRU, 5% FCS/3 days, read-out: Test Compound IC50 Value in Cell Lines
[13] = HT-29, HT29 (Colon), 5% FCS/5 day incubation, read-out: Test Compound IC50
[14] = HT-29, HT29, 5% FCS/3 days, read-out: Test Compound IC50 Value in Cell Lines
[15] = U118MG (CNS), 5% FCS/5 day incubation, read-out: Test Compound IC50
[16] = U118MG, 5% FCS/3 days, read-out: Test Compound IC50 Value in Cell Lines
[17] = MDA-MB-23, read-out: Test Compound IC50
[18] = A549 (Lung), 5% FCS/5 day incubation, read-out: Test Compound IC50

Compound	IC50 [2] [nM]	inhibition at 10 µM [2] [%]	IC50 (HeLa) [nM]	IC50 (MCF7; [5]) [nM]	IC50 (MCF7; [6]) [nM]	IC50 (HEPG2; [9]) [nM]	IC50 (HEPG2; [10]) [nM]	IC50 (DU-145) [nM]	IC50 (SK-MEL-28) [nM]	IC50 (HT29; [13]) [nM]	IC50 (HCT-15) [nM]	IC50 (ACHN) [nM]	IC50 [1, 3] [nM]	IC50 (CaSki) [nM]	IC50 (HTB174) [nM]	IC50 (MMRU; [11]) [nM]	IC50 (U118MG; [15]) [nM]	IC50 (HUVEC) [nM]	IC50 (GM) [nM]	IC50 (L929) [nM]	further results
COC(=O)N1Cc2ccccc2C(c2ccccc2Cl)c2ccccc21 (centres unmarked) [Compound 9, N-methoxycarbonyl-11-(2′-chlorophenyl)-5,6-dihydro-11H-dibenz[b,e]azepine]	85 to 93	97.3											2100								melting point: 159 to 161 °C
O=C(Oc1ccccc1)N1Cc2ccccc2C(c2ccccc2)c2ccccc21 (centres unmarked) [Compound 14, N-phenoxycarbonyl-11-phenyl-5,6-dihydro-11H-dibenz[b,e]azepine]	> 10000	14.8											40								IC50 (A549; A549, A549, 5% FCS/2 days, read-out: Test Compound IC50 Value in Cell Lines): > 10000 nM; IC50 (MMRU; MMRU, 5% FCS/2 days, read-out: Test Compound IC50 Value in Cell Lines): > 10000 nM; IC50 (HT29; HT-29, HT29, 5% FCS/2 days, read-out: Test Compound IC50 Value in Cell Lines): 10000 nM; melting point: 155 to 165 °C
O=C(c1ccc([N+](=O)[O-])cc1)N1Cc2ccccc2C(c2ccccc2Cl)c2ccccc21 (centres unmarked) [Compound 28, N-(4′-nitrobenzoyl)-11-(2′-chlorophenyl)-5,6-dihydro-11H-dibenz[b,e]azepine]		0	300	600	2100	300	< 1250	900	400	300	400	700		500	100	200	500	700	900	600	Mitogenic Assay Inhibition ([1]; 10 µM compound, NIH 3T3 mouse fibroblast cells): 99.0%; IC50 ([1]; NIH3T3, NIH 3T3 mouse fibroblast cells): 40 to 500 nM; IC50 (MDA-MB-23; [17]): 500 nM; IC50 (A549; [18]): 800 nM; IC50 (A549; A549, 5% FCS/3 days, read-out: Test Compound IC50 Value in Cell Lines): 1800 nM; IC50 (MMRU; [12]): < 1250 nM; IC50 (HT29; [14]): < 1250 nM; IC50 (U118MG; [16]): 1300 nM; IC50 (SK-OV-3): > 1000 nM; IC50 (3T3): > 1000 nM
O=C(Oc1ccccc1)N1Cc2ccccc2C(c2ccccc2Cl)c2ccccc21 (centres unmarked) [Compound 26, N-phenoxycarbonyl-11-(2′-chlorophenyl)-5,6-dihydro-11H-dibenz[b,e]azepine]	> 10000	0.8			5900		5400						40 to 900								IC50 (A549; [8]): 7000 nM; IC50 (MMRU; [12]): 4900 nM; IC50 (HT29; [14]): 7200 nM; IC50 (U118MG; [16]): 5700 nM; melting point: 95 to 99 °C
COc1cc([C@@H]2c3cc4c(cc3[C@@H](O[C@@H]3O[C@@H]5CO[C@@H](C)O[C@H]5[C@H](O)[C@H]3O)[C@H]3COC(=O)[C@H]23)OCO4)cc(OC)c1O [VP-16, Etoposide, reference compound]			< 1250	< 1250		< 1250		< 1250	< 1250	< 1250	1300	< 1250		1800	< 1250	< 1250	2200	< 1250	1400	< 1250	IC50 (MDA-MB-23; [17]): < 1250 nM; IC50 (MCF7; MCF7, 2% FCS/3 days, read-out: Test Compound IC50 Value in Cell Lines): < 2500 nM; IC50 (A549; [18]): < 1250 nM; IC50 (A549; A549, 2% FCS/3 days, read-out: Test Compound IC50 Value in Cell Lines): 2300 nM; IC50 (MMRU; MMRU, 2% FCS/3 days, read-out: Test Compound IC50 Value in Cell Lines): < 2500 nM; IC50 (HT29; HT-29, HT29, 2% FCS/3 days, read-out: Test Compound IC50 Value in Cell Lines): 20000 nM
O=C(c1ccc([N+](=O)[O-])cc1)N1Cc2ccccc2C(c2ccccc2)c2ccccc21 (centres unmarked) [Compound 20]	> 10000	13.6	600	> 1000		900		> 1000	900	700	900	> 1000	1700	900	700	500	900	> 1000	> 1000	900	IC50 (MDA-MB-23; [4]): > 1000 nM; IC50 (A549; [7]): > 1000 nM; IC50 (SK-OV-3): > 1000 nM; IC50 (3T3): > 1000 nM

Continued, in another order:

IC50 [2] [nM]	inhibition at 10 µM [2] [%]	IC50 (HeLa) [nM]	IC50 (MCF7; [5]) [nM]	IC50 (MCF7; [6]) [nM]	IC50 (HEPG2; [9]) [nM]	IC50 (HEPG2; [10]) [nM]	IC50 (DU-145) [nM]	IC50 (SK-MEL-28) [nM]	IC50 (HT29; [13]) [nM]	IC50 (HCT-15) [nM]	IC50 (ACHN) [nM]	Compound	IC50 [1, 3] [nM]	IC50 (CaSki) [nM]	IC50 (HTB174) [nM]	IC50 (MMRU; [11]) [nM]	IC50 (U118MG; [15]) [nM]	IC50 (HUVEC) [nM]	IC50 (GM) [nM]	IC50 (L929) [nM]	further results
> 10000	14.6	500	1300	1600	900	< 1250	> 1000	600	600	500	> 1000	COc1ccc2c(c1)CN(C(=O)c1ccc([N+](=O)[O-])cc1)c1ccc(Cl)cc1C2c1ccccc1Cl (centres unmarked) [Compound 30]	600	700	500	500	800	> 1000	> 1000	> 1000	IC50 (MDA-MB-23; [4]): 900 nM; IC50 (A549; [7]): 1500 nM; IC50 (A549; [8]): 1700 nM; IC50 (MMRU; [12]): < 1250 nM; IC50 (HT29; [14]): < 1250 nM; IC50 (U118MG; [16]): < 1250 nM; IC50 (SK-OV-3): > 1000 nM; IC50 (3T3): > 1000 nM
> 10000	3	200	500	< 1250	400	< 1250	> 1000	700	400	400	> 1000	COc1ccc(C(=O)N2Cc3ccccc3C(c3ccccc3Cl)c3ccccc32)cc1 (centres unmarked) [Compound 27]	2200	900	300	200	400	> 1000	> 1000	> 1000	IC50 (MDA-MB-23; [4]): > 1000 nM; IC50 (A549; [7]): 1100 nM; IC50 (A549; [8]): < 1250 nM; IC50 (MMRU; [12]): < 1250 nM; IC50 (HT29; [14]): < 1250 nM; IC50 (U118MG; [16]): 1900 nM; IC50 (SK-OV-3): > 1000 nM; IC50 (3T3): > 1000 nM
> 10000	12.3	200	700	< 1250	400	< 1250	900	300	200	300	800	COc1cccc2c1C(c1ccccc1Cl)c1cc(Cl)ccc1N(C(=O)c1ccc([N+](=O)[O-])cc1)C2 (centres unmarked) [Compound 31]	400	500	200	200	400	800	> 1000	900	IC50 (MDA-MB-23; [4]): 400 nM; IC50 (A549; [7]): 600 nM; IC50 (A549; [8]): < 1250 nM; IC50 (MMRU; [12]): < 1250 nM; IC50 (HT29; [14]): < 1250 nM; IC50 (U118MG; [16]): < 1250 nM; IC50 (SK-OV-3): 600 nM; IC50 (3T3): > 1000 nM
